One block for each compound: values may come before it.
What was measured:
Format in all cases: biochemical
[1] = molecular target: T1, cathepsin B (Homo sapiens, UniProt P07858); assay: Cathepsin B inhibitor kinetic characterization, fluorogenic assay with Z-Phe-Arg-AMC; conditions: cathepsin B
T1 construct: purchased R&D Systems 953-CY-010
Experimental: Inhibitor kinetic characterization using fluorogenic assays for cathepsin B activity. Kinetic analyses of IC50, K1, kobs, and kinact/K1 values for Z-Arg-Lys-AOMK and Z-Glu-Lys-AOMK inhibition of cathepsin B were conducted by fluorogenic proteolytic assays consisting of 40 μM Z-Phe-Arg-AMC, 40 mM citrate phosphate at pH 7.2 or pH 4.6, 1 mM EDTA, 100 mM NaCl, 5 mM DTT, and 0.01% Tween 20; assays were performed at room temperature (22-27° C.) in quadruplicate. Inhibitor and substrate were combined in the reaction well, and the assay was started upon addition of cathepsin B (0.04 ng/μL). The inhibitor concentration ranged from 5.5 μM to 1.1 nM (1.5-fold serial dilution). A vehicle control assay contained 2% DMSO instead of inhibitor. Enzyme velocity (RFU/sec) was measured during a […] incubation period as relative fluorescent units per sec (RFU/s), calculated using the highest slope recorded for 10 consecutive readings taken at 46 sec intervals (thus, activity is calculated over a total of 460 sec). Prism software was used to analyze enzyme activity data in kinetic studies. IC50 values were calculated (without preincubation of inhibitor and enzyme) as the concentration of inhibitor that reduced cathepsin B activity by 50%.
For determination of K1 and kinact/K1 kinetic inhibition constants, kobs constants were determined by plots of cathepsin B activity in time courses with different inhibitor concentrations by curve fitting slope data of RFU versus time into Y=Y0*e^(−kobs*^X), where Y0 is the activity for the control with no inhibitor condition, Y is the activity in the presence of inhibitor, X is time. K1 and kinact values were calculated from curve fitting the kobs values into the equation kobs=kinact*[I]/(K1+[I]), where [I] is inhibitor concentration, and K1 is the x-axis inhibitor concentration where y=kinact/2 and kinact is the maximum rate of inactivation at saturating inhibitor concentrations (93, 94). These kinetic analyses are for irreversible inhibitors, Z-Arg-Lys-AOMK and Z-Glu-Lys-AOMK of this study, that utilize Ki values, rather than Ki values used for reversible inhibitors (93).

[2] = molecular target: T2, cathepsin C (Homo sapiens, UniProt P53634); assay: Specificity of inhibitors: cathepsin C (Gly-Arg-AMC substrate); conditions: pH 7.2, from IC50
T2 construct: purchased R&D Systems 1071-CY-010
T2 sequence (P53634 25-134 limits assumed): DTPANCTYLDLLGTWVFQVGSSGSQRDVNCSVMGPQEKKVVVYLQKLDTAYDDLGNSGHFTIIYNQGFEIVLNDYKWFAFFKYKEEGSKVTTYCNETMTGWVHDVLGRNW
T2 sequence (P53634 231-394 limits assumed): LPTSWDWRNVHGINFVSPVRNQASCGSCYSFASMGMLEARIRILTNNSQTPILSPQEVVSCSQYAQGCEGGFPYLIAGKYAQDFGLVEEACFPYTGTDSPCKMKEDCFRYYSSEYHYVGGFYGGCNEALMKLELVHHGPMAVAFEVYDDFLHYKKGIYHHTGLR
T2 sequence (P53634 395-463 limits assumed): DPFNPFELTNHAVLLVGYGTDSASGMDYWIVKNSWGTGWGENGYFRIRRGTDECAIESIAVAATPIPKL
Experimental: (§1) Specificity of inhibitors for other cysteine cathepsin proteases. The effects of Z-Arg-Lys-AOMK and Z-Glu-Lys-AOMK on cathepsin V, L, K, S, X, H and C activities were assessed. IC50 values were calculated at pH 4.6 and pH 7.2 conditions, consisting of 40 mM citrate phosphate, 1 mM EDTA, 100 mM NaCl, and 5 mM DTT. The inhibitor concentrations ranged from 16.38 μM to 256 nM with 2-fold serial dilutions. […] Cathepsin V (0.04 ng/μL), cathepsin L (0.03 ng/μL), cathepsin K (0.10 ng/μL), cathepsin S (0.20 ng/uL) were assayed with 40 μM Z-Phe-Arg-AMC. Cathepsin X (0.20 ng/uL), cathepsin C (0.51 ng/uL) and cathepsin H (0.1 ng/μL) were assayed with 40 μM of MCA-Arg-Pro-Pro-Gly-Phe-Ser-Ala-Phe-Lys(Dnp)OH (SEQ ID NO: 2), Gly-Arg-AMC, and Arg-AMC, respectively. Activation of pro-cathepsin H to cathepsin H was conducted by incubation of cathepsin H (4.4 ng/μL) with cathepsin L (1.1 ng/μL) at RT for 2 hrs in activation buffer (20 mM citrate phosphate pH 6.0, 100 mM NaCl, and 5 mM DTT). Cathepsin C (13.78 ng/μL) was activated by incubation with cathepsin L (3.4 ng/μL) at RT for one hr in activation buffer (20 mM citrate phosphate, pH 6.0, 100 mM NaCl, 5 mM DTT). […] For all assays containing peptide-AMC substrates the fluorescent microplate reader settings were the same as outlined above for cathepsin B. For the cathepsin X assay, the plate reader was set to excitation 320 nm, emission 400 nm, gain 105, top optics and read height 1 mm. To convert RFU/s to picomol/min, 10 μM to 0.005 μM (2-fold serial dilution) of MCA-Arg-Pro-Pro-Gly-Phe-Ser-Ala-Phe-Lys(Dnp)OH (SEQ ID NO: 2) was fully hydrolyzed with excess cathepsin X and a standard curve was generated using the total fluorescence values calculated at each concentration.

[3] = molecular target: T3, cathepsin H (Homo sapiens, UniProt P09668); assay: Specificity of inhibitors: cathepsin H (Arg-AMC substrate); conditions: cathepsin H
T3 construct: purchased R&D Systems 75116-CY-010
T3 sequence (P09668 116-335 limits assumed, other chains not shown): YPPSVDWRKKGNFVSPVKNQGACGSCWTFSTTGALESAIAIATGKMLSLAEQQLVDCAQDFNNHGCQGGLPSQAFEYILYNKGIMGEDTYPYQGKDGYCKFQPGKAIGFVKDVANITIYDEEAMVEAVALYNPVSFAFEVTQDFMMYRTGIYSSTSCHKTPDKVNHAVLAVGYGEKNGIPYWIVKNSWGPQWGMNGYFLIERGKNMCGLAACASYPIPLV
Experimental: as §1

[4] = molecular target: T4, cathepsin K (Homo sapiens, UniProt P43235); assay: Specificity of inhibitors: cathepsin K (Z-Phe-Arg-AMC substrate); conditions: cathepsin K
T4 construct: purchased Abcam ab157067
T4 sequence (P43235 115-329): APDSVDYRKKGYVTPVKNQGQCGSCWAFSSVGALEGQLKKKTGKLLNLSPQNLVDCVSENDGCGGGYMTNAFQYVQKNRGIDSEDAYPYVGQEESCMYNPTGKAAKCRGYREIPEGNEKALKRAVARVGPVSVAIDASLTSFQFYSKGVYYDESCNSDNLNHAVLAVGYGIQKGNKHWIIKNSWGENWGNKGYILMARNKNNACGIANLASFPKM
Experimental: as §1

[5] = molecular target: T5, cathepsin L (Homo sapiens, UniProt P07711); assay: Specificity of inhibitors: cathepsin L (Z-Phe-Arg-AMC substrate); conditions: cathepsin L
T5 construct: purchased R&D Systems 952-CY-010
T5 sequence (P07711 114-333): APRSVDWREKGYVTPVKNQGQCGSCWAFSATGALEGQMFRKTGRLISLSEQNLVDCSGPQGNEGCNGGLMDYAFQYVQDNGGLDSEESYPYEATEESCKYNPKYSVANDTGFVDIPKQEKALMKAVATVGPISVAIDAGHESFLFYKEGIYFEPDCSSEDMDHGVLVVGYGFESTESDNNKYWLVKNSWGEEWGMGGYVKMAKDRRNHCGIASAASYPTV
Experimental: as §1

[6] = molecular target: T6, cathepsin S (Homo sapiens, UniProt P25774); assay: Specificity of inhibitors: cathepsin S (Z-Phe-Arg-AMC substrate); conditions: cathepsin S
T6 construct: purchased R&D Systems 1183-CY-010
T6 sequence (P25774 115-331): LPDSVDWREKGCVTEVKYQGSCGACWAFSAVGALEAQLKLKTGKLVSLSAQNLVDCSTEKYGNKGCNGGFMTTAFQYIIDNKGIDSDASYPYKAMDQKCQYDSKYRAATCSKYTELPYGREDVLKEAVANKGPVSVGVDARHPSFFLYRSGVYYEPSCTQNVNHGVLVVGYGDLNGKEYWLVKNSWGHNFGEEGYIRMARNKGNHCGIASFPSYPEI
Experimental: as §1

[7] = molecular target: T7, cathepsin V (Homo sapiens, UniProt O60911); assay: Specificity of inhibitors: cathepsin V (Z-Phe-Arg-AMC substrate); conditions: cathepsin V
T7 construct: purchased R&D Systems 1080-CY-010
T7 sequence (O60911 114-334): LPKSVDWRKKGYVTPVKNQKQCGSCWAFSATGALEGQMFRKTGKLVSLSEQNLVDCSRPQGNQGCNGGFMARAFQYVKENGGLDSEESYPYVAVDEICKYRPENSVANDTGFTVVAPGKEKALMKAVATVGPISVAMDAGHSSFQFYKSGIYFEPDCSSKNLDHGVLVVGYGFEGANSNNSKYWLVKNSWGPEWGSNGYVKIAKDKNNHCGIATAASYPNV
Experimental: as §1

[8] = molecular target: cathepsin X (Homo sapiens, UniProt Q9UBR2); assay: Specificity of inhibitors: cathepsin X (MCA peptide substrate); conditions: cathepsin X, pH 4.6
cathepsin X, sequence (Q9UBR2 62-303): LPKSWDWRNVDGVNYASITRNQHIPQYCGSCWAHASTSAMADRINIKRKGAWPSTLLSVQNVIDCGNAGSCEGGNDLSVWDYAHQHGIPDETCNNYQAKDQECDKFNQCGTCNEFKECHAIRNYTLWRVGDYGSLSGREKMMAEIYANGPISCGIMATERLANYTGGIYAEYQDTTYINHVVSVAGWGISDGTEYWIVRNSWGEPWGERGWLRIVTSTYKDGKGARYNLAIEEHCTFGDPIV
Experimental: as §1

[9] = molecular target: T1, cathepsin B; assay: Irreversible mechanism of inhibitors (pre-incubation, dilution, activity); conditions: pH 4.6
Experimental: Irreversible mechanism of inhibitors. The irreversible or reversible mechanism of cathepsin B inhibition was assessed for Z-Arg-Lys-AOMK and Z-Glu-Lys-AOMK inhibitors. At pH 7.2, cathepsin B was incubated with 190 nM Z-Arg-Lys-AOMK and 4.99 μM Z-Glu-Lys-AOMK for 15 min in pH 7.2 assay buffer and the assay was performed as described above for pH 4.6. Proteolytic activity was monitored for 2 hr. At pH 4.6, cathepsin B (activated, 3.7 ng/μL) was incubated with 4.24 μM Z-Arg-Lys-AOMK and 3.48 μM Z-Glu-Lys-AOMK for 15 min in 40 mM citrate phosphate pH 4.6, 1 mM EDTA, 100 mM NaCl, and 5 mM DTT; a vehicle control contained 2.5% DMSO. Each reaction was then diluted 100-fold in assay buffer such that the final assay composition was 0.04 ng/μL cathepsin B, 40 μM Z-Phe-Arg-AMC, and an inhibitor concentration of 1/10th the IC50 value.

[10] = molecular target: T8, cathepsin B in SHSY5Y human neuroblastoma cell homogenate (Homo sapiens, UniProt P07858); assay: Cathepsin B activity in neuroblastoma cell homogenates in presence of inhibitors; conditions: inhibitor 1 μM, Z-Arg-Arg-AMC substrate, pH 5.5
T8 construct: endogenous in cells; host or cells: SH-SY5Y human neuroblastoma cells
Experimental: Cathepsin B in human neuroblastoma cells treated with inhibitors. Neuroblastoma cells (human SHSY5Y) were grown in media consisting of 50% MEMalpha, 50% F12-K, 10% heat-inactivated FBS at 37° C. in an atmosphere of 95% air and 5% CO2. Firstly, cell homogenates were prepared by collection of cells in 0.32 M sucrose and freeze-thawing. Secondly, cells were incubated with Z-Arg-Lys-AOMK or CA-074Me for 6 hours at 37° C., and washed 3 times in phosphate-buffered saline and homogenates were prepared in 0.32 M sucrose with freeze-thawing. CA-074Me is a methyl ester form of the active CA-074 selective inhibitor of cathepsin B (70); CA-074Me penetrates the cell and is converted by intracellular esterases to CA-074.
Cathepsin B activity in the homogenates were monitored with Z-Arg-Arg-AMC substrate (60 μM) with buffer conditions of 40 mM citrate-phosphate, pH 5.5, 5 mM DTT, 1 mM EDTA, 100 mM NaCl, and 1.2% DMSO, followed by incubation at 37° C. for 30 minutes and reading of AMC fluorescence. CA-074-senstive activity was monitored to indicate cathepsin B activity, since CA-074 is a selective inhibitor of this enzyme (70). Protein content was measured in homogenates with the DC protein assay kit. Cathepsin B specific activity was calculated as nmol AMC/μg/min, and reported as the mean±SD (with analyses for statistical significance, p<0.05 by student's t-test).

kinact/KI ([1]; pH 4.6): 2000 M⁻¹ s⁻¹
Ki ([1]; pH 4.6, irreversible inhibitor): 7.9 µM
IC50 ([1]; pH 4.6, without preincubation): 1.1 µM
kinact/KI ([1]; pH 7.2): 8200 M⁻¹ s⁻¹
Ki ([1]; pH 7.2, irreversible inhibitor): 2.3 µM
IC50 ([1]; pH 7.2, without preincubation): 0.32 µM
fold more potent for cathepsin B than cathepsin C [2]: 38 fold
IC50 ([3]; pH 4.6): > 16 µM
IC50 ([3]; pH 7.2): > 16 µM
IC50 ([4]; pH 4.6): > 16 µM
inhibition at 16 µM ([4]; pH 4.6, 16,000 nM inhibitor): 10%
IC50 ([4]; pH 7.2): > 16 µM
IC50 ([5]; pH 4.6): > 16 µM
inhibition at 16 µM ([5]; pH 4.6, 16,000 nM inhibitor): 23%
IC50 ([6]; pH 4.6): > 16 µM
inhibition at 16 µM ([6]; pH 4.6, 16,000 nM inhibitor): 26%
IC50 ([6]; pH 7.2): > 16 µM
inhibition at 16 µM ([6]; pH 7.2, 16,000 nM inhibitor): 30%
IC50 ([7]; pH 7.2): > 16 µM
inhibition at 16 µM ([7]; pH 7.2, 16,000 nM inhibitor): 10%
IC50 [8]: > 16 µM
cathepsin B activity after pre-incubation and dilution of inhibitor [9]: no cathepsin B activity
SMILES: Cc1cccc(C)c1C(=O)OCC(=O)C(CCCCN)NC(=O)C(CCC(=O)O)NC(=O)OCc1ccccc1 (stereo not drawn) [Z-Glu-Lys-AOMK]

SMILES: CCCNC(=O)[C@H]1O[C@@H]1C(=O)N[C@H](C(=O)N1CCC[C@H]1C(=O)O)[C@@H](C)CC [CA-074, reference compound]
inhibition of proteolytic (cathepsin B) activity in cell lysate [10]: completely inhibited
